Experimental data from patent publication US20050282743A1, “Molecular interactions in cells” (Arbor Vita Corporation, priority 2001, published 2005).
Ends that are not written are not given here. Peptide text beside a SMILES is read from it. * marks the point of attachment. Biotin = O=C1N[C@H]2[C@H](CS[C@H]2CCCCC(=O)*)N1

Columns and labels:
[1] = molecular target: T1, PDZ protein (GST-PDZ fusion) (Homo sapiens, UniProt Q9NRD5); assay: G' assay (10 uM PL peptide), results of TABLE 7 and TABLE 12; format: binding; conditions: PDZ PICK1, PDZ Domain 1
T1 construct: made in house; host or cells: E. coli (DH5alpha, BL21 or JM109)
T1 sequence (Q9NRD5 whole entry, the tested form may be a part): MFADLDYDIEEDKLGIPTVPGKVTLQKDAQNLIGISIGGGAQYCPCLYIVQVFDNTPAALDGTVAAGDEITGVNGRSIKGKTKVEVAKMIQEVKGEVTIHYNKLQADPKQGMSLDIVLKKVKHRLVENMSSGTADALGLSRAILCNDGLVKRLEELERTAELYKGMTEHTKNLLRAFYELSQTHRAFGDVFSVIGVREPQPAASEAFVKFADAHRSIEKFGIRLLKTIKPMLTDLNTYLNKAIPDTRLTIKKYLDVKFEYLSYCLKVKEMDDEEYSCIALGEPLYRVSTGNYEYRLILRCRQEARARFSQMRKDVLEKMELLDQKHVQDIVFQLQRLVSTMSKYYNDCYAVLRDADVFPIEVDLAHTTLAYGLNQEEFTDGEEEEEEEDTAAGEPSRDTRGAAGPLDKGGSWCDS
Summary of the method: (§1)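 Biotinylated PL peptides at 10 uM (vs 20 uM in G^0 assay) bound to GST-PDZ fusions; PDZ protein at 5 ug/ml unless another concentration listed. Bound peptide read as A450 nm, classified 0–5 (0 = A450 0; 5 = A450 >4 repeated).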

[2] = molecular target: T2, PDZ protein (GST-PDZ fusion) (Homo sapiens, UniProt Q9BXL6); assay: as above; format: binding; conditions: PDZ CARD14, PDZ Domain 1
T2 construct: made in house; host or cells: E. coli (DH5alpha, BL21 or JM109)
T2 sequence (Q9BXL6 1-1004): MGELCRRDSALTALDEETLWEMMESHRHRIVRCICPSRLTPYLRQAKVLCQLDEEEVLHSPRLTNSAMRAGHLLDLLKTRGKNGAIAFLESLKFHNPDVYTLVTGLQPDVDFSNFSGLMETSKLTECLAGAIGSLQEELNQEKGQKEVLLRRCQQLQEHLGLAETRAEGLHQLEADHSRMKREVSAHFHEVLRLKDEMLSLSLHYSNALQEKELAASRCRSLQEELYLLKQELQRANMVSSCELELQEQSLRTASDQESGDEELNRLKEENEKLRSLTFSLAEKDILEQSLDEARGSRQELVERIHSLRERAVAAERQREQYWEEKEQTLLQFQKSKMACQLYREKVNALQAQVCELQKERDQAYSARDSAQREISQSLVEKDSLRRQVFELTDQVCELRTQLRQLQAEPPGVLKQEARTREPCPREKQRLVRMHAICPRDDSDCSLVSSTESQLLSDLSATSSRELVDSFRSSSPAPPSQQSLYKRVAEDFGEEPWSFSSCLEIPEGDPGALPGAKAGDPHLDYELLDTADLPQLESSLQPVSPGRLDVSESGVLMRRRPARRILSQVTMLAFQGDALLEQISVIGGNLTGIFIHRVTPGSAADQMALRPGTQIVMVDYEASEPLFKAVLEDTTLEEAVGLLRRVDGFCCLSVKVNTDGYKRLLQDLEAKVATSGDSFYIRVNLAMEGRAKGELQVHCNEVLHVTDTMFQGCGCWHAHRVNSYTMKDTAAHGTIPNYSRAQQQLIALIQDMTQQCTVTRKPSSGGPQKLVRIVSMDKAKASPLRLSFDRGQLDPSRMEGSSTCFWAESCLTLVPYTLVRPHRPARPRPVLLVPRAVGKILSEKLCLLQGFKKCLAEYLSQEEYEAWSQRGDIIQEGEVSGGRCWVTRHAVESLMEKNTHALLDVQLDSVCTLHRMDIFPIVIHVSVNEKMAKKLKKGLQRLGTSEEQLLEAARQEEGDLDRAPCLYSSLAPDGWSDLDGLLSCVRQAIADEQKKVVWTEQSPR
Summary of the method: as §1

Classification [2] | Molecule | Classification [1]
 | CC(C)C[C@H](NC(=O)[C@H](Cc1c[nH]c2ccccc12)NC(=O)[C@H](Cc1c[nH]cn1)NC(=O)[C@H](CCCNC(=N)N)NC(=O)[C@H](CC(C)C)NC(=O)[C@@H](NC(=O)[C@H](Cc1ccccc1)NC(=O)[C@H](CCC(N)=O)NC(=O)[C@H](CCCNC(=N)N)NC(=O)[C@@H](NC(=O)[C@H](CCC(=O)O)NC(=O)CNC(=O)[C@H](CCCNC(=N)N)NC(=O)[C@H](CC(=O)O)NC(=O)[C@@H](NC(=O)[C@H](CC(C)C)NC(=O)[C@H](CCC(=O)O)NC(=O)[C@H](CCCNC(=N)N)NC(=O)CCCC[C@@H]1SC[C@@H]2NC(=O)N[C@@H]21)C(C)C)C(C)C)[C@@H](C)O)C(=O)N[C@@H](CCCCN)C(=O)N[C@H](C(=O)O)C(C)C [Dopamine transporter (Na+-dependent)] (Biotin-RELVDRGEVRQFTLRHWLKV-OH; C-terminus assumed) | 2 (A450 nm 1-2)
1 (A450 nm 0-1) | A2AA_HUMAN (modified) (Biotin-HDFRRAFKKILARGDRKRIV; not fully specified) | 
5 (A450 nm of 4 more than 2× repeated) | A2AC_HUMAN (Modified) (Biotin-DFRPSFKHILFRRARRGFRQ; not fully specified) | 
 | CC[C@H](C)[C@H](NC(=O)[C@H](C)NC(=O)[C@H](CC(C)C)NC(=O)[C@H](Cc1c[nH]c2ccccc12)NC(=O)[C@H](Cc1c[nH]cn1)NC(=O)[C@H](CCC(N)=O)NC(=O)[C@H](CC(C)C)NC(=O)[C@H](CCC(N)=O)NC(=O)[C@H](Cc1ccccc1)NC(=O)[C@H](CCC(N)=O)NC(=O)[C@H](CCCNC(=N)N)NC(=O)[C@@H](NC(=O)[C@H](CC(=O)O)NC(=O)[C@H](CCCNC(=N)N)NC(=O)[C@H](CCC(N)=O)NC(=O)[C@H](C)NC(=O)[C@@H](NC(=O)[C@H](CC(C)C)NC(=O)[C@H](Cc1c[nH]cn1)NC(=O)[C@H](Cc1c[nH]cn1)NC(=O)CCCC[C@@H]1SC[C@@H]2NC(=O)N[C@@H]21)C(C)C)[C@@H](C)CC)C(=O)O [noradrenaline transporter] (Biotin-HHLVAQRDIRQFQLQHWLAI-OH; C-terminus assumed) | 1 (A450 nm 0-1)
